{"source": "patent US20070254903A1", "about": "“Novel Spiroindoline or Spiroisoquinoline Compounds, Methods of Use and Compositions Thereof” (ARENA PHARMACEUTICALS, INC., priority 2003, published 2007)", "tested_on": "rats", "assay": "Measurement of blood pressure in rats (telemetry)", "assay_type": "in vivo, rat", "conditions": "conscious rats, IP injection, about 120 minutes after injection; FIG. 6", "method": "Cardiac parameters were measured by small transmitting devices, (Data Sciences PhysioTel Telemetry devices), implanted in rats. The implanted transmitting devices were used to measure blood pressure in freely moving conscious animals. There are no external connections or tethering devices that can inhibit animal movement and induce unnecessary stress, which can affect the outcome of a study.\nThis procedure was performed under modified aseptic conditions. Rats were anesthetized with Isoflurane gas that ranged in concentration from 1.5-2.0%. A cardiac telemetry device was implanted into the peritoneal cavity with a pressure sensing catheter situated no more than 2 cm inside the descending aorta. This was accomplished as follows: The rat was shaved and the incision site was prepared with an iodine solution. The rat was then placed on a heating pad to maintain a constant body temp of 38±0.5° C., and covered with a sterile drape. A 6 cm midline abdominal incision was made to provide access to the implantation area. […] The rats were monitored for 7 days to ensure proper recovery.\nOn the test day, injections with either vehicle or with test compound were administered via IP injection in volumes of ˜250 μl. Animals were monitored with a resolution of approximately one measurement/min for 60 minutes before injection of vehicle or compound and for about 120 minutes after injection.", "data": [{"smiles": "C=CCN1CCC2(CC1)CN(C(=O)c1cccc(F)c1F)c1ccc(F)cc12", "note": "[Compound 75, 1′-(allyl)-1,2-dihydro-5-fluoro-1-(2,3-difluoro-benzoyl)-spiro[3H-indole-3,4′-piperidine]]", "values": [{"measurement": "blood pressure change", "result": "did not result in a significant change in blood pressure"}]}]}
